Data as given in patent US10561638B2, “Methods for treating dependence” (Biotie Therapies, Inc., priority 2007, dated 2020).

Legend:
[1] = tested on: spontaneous hypertensive rats; test: SCH-23390 pretreatment study in restrained SHRs; assay type: in vivo; settings: SCH-23390 iv, post-iv period
From the text: Male, spontaneous hypertensive rats (280-345 g; Charles River Labs, Kingston, N.Y.) were fasted overnight then anesthetized with ether. A femoral artery and femoral vein were cannulated with PE50 tubing for recording of blood pressure and administration of compounds, respectively. Animals were then placed in MAYO restrainers and their feet loosely taped to the restrainer. Heparinized saline (50 units sodium heparin/ml) was used to maintain patency of each cannula throughout the experiment. The following parameters were continuously recorded using Modular Instruments MI^2 BioReport™ software installed on an IBM personal computer: mean arterial pressure (MAP), heart rate (HR), and the change from baseline for each parameter at specified time points in the experiment.
All compounds were dissolved on the day of use. Nepicastat was dissolved in deionized water (vehicle) to a free base concentration of 1 mg/ml. Oral dosing volume for nepicastat or vehicle was 10 ml/kg. SCH-23390 was dissolved in saline (vehicle) to a free base concentration of 0.2 mg/ml. […] or saline were administered intravenously as a bolus in a volume of 1.0 ml/kg followed by 0.2 ml flush of isotonic saline.
Following surgical preparation, each animal was allowed a minimum one hour recovery period. Animals were randomly assigned to four treatment groups: vehicle (iv)/vehicle (po); vehicle (iv)/nepicastat (po); SCH-23390 (iv)/vehicle (po); or SCH-23390 (iv)/nepicastat (po). Once animals were stabilized (minimum one hour), baseline blood pressure and heart rate was determined by taking an average of each parameter over a 15 min period of time. Once baseline blood pressure and heart rate were established, animals were dosed intravenously with either SCH-23390 (200 μg/kg) or vehicle (saline, 1 ml/kg). Fifteen minutes later, animals were orally dosed with either nepicastat (10 mg/kg) or vehicle (deionized water, 10 ml/kg).
Recorded parameters were measured 15 min prior to intravenous dosing to establish baseline blood pressure and heart rate. Recorded parameters were then measured at 5, 10, and 15 min following intravenous administration of SCH-23390 or vehicle. Following oral administration of nepicastat or vehicle, recorded parameters were measured at 15, 30, 60, 90, 120, 150, 180, 210, and 240 min.
At the end of the experiment, each animal was anesthetized with halothane and euthanized via decapitation. The cortex, left ventricle (apex), and mesenteric artery were dissected out, weighed, and fixed in 0.4 M perchloric acid. Tissues were then frozen in liquid nitrogen and stored at −70° C. Biochemical analysis are performed on these tissues at a later date to determine catecholamine levels including dopamine and norepinephrine levels. Blood pressure and heart rate were analyzed separately. The change from baseline for blood pressure and heart rate were analyzed by an analysis of variance (ANOVA) with effects for treatment, time, and their interaction. This analysis was performed both for the post-iv time period and for the post-oral time period. Further analyses were performed at each time by an ANOVA with a main effect for […]. Pairwise comparisons were performed following each ANOVA by Fisher's LSD strategy with a Bonferroni correction when the overall treatment effect was not significant.
An additional analysis was performed to compare the baseline means of each treatment group by an ANOVA with a main effect for treatment and subsequent pairwise comparisons. […]

Sprague Dawley rats = test: Locomotor activity and acoustic startle reactivity in rats, acute; assay type: in vivo; settings: nepicastat 3-100 mg/kg, SKF-102698 100 mg/kg, clonidine 40 μg/kg
From the text: Rats were housed under a normal light/dark cycle with lights on between 0900 Hrs. and 2100 Hrs. Animals were housed in pairs in standard metal wire cages, and food and water were allowed ad libitum. The locomotor activity boxes consisted of a Plexiglas box measuring 18''×18'' by 12'' high. Surrounding the Plexiglas® boxes were Omnitech Digiscan Monitors (model # RXXCM 16) which consisted of a one inch ban of photobeams and photosensors numbering 32 per box. The number of photobeam breaks were analyzed by an Omnitech Digiscan Analyzer (model # DCM-8). […] A piezoelectric accelerometer transforms the subject's movement into an arbitrary voltage on a scale of 0 to 4095. […] The average startle was calculated for each rat by taking the mean of startle number 11 through 45 (the first ten startles will be disregarded). Sixty-four of these rats were then placed in one of eight treatment groups such that each group had similar mean startle values. The eight treatment groups were as follows: […] […] The rats motor activity was monitored for four hours. […] To evaluate motor activity, horizontal activity (number of photobeams broken), number of movements, and rest time were measured. Each parameter was analyzed separately. […] The startle responses were analyzed using analysis of covariance. […] Therefore, the startle responses were analyzed by time. […]

rats = test: Chronic (10 day) dosing behavioral tests in rats; settings: rat, in vivo
Procedure: The effects of chronic dosing of nepicastat in rats were examined. Between three and thirteen days prior to the first dosing day the rats were placed inside the startle apparatus and after a five minute acclimation period they were presented with a 118 dB noise burst on average once a minute (a variable inter-trial interval ranging between 30 and 90 seconds will be used) for 20 minutes. The startle responses were measured and a mean for the last twenty startle response was calculated for each rat.
The following behavioral tests were administered during and after chronic dosing; body core temperature, motor activity, acoustic startle reactivity, and pre-pulse inhibition of acoustic startle.
The animals were tested in an enclosed room with a white noise generator running Motor activity tests were conducted immediately after the body core temperature reading taken on dosing day ten (about 3 hours and 35 minutes after the morning daily dose of nepicastat, and SKF-102698, and 20 minutes prior to the daily administration of clonidine and d-amphetamine on dosing day ten). Motor activity tests were run for one hour. A diagnostic program was run on each of the motor activity chambers prior to each test session to assure that the photo beams and light sensors were operating properly. […] D-amphetamine was used as the positive control for this assay.
Rat body core temperatures were obtained by inserting the rectal probe 2 cm into the colon of each rat. Each rat's body core temperature was measured three times and the average of the three reading was calculated. Body core temperature readings were obtained immediately prior to the ten day chronic dosing schedule (to obtain a baseline), and three and half hour after the morning daily dose of nepicastat, and SKF-102698, and 15 minutes prior to the daily administration of clonidine and d-amphetamine, on dosing days one, five and ten. […] Both clonidine (an alpha2 agonist), and d-amphetamine (a dopamine releaser) were used as the positive controls for this assay.
Acoustic startle reactivity (a series of muscle contractions elicited by an intense burst of noise with a rapid onset), and pre-pulse inhibition (sensorimotor gating measured by analyzing any decrease in startle reactivity which occurs when a startling stimulus is immediately preceded by a non startling stimulus) were both measured in eight SR-Lab (San Diego Instruments, San Diego, Calif.) test stations. The rats were placed individually in a Plexiglas cylinder (10 cm diameter) which was housed in a ventilated sound-attenuating enclosure. Acoustic noise bursts (a broad band noise with a rise time and fall time of 1 msec) were presented via a speaker mounted 30 cm above the animal. Also, these speakers produced a 68 dB level of background noise throughout all test sessions. A piezoelectric accelerometer attached below the plexiglass cylinder transduced the subject's movement into a voltage which was then rectified and digitized (on a scale from 0 to 4095) by a PC computer equipped with SR-Lab software and interface assembly. A decibel meter was used to calibrate the speakers in each of the eight test station to ±1% of the mean. Additionally, a SR-Lab calibrating instrument was used to calibrate each of the eight startle detection apparatuses to ±2% of the mean. Startle reactivity and pre-pulse inhibition tests were run concurrently immediately alter the motor activity test (about 4 hours and 40 minutes after the morning daily injection of nepicastat, and SKF-102698, and 10 minutes after a supplemental administration of clonidine and d-amphetamine on dosing day ten).

[2] = in vivo; cited from earlier work
CD-1 (ICR) mice = test: Locomotor activity in mice, intraperitoneal; assay type: in vivo; settings: i.p.; nepicastat 3-100, SKF-102698 30 and 100, cocaine 30 mg/kg
From the text: Adult male CD-1 (ICR) mice (30-40 g on study day) were housed in groups of eight under a normal light/dark cycle with lights on between 0900 hr and 2100 hr. Food and water were allowed ad libitum. All animals were naive to drug treatment and behavioral testing. Each animal was only used once.
Locomotor activity was monitored in an automated 14 station activity monitoring system (San Diego Instrument Co.). Each station consisted of a clear perspex cage (25 cm×45 cm×20 cm; w×1×h) placed within a metal frame containing 3 photoemmitors and 3 photodetectors spaced equally along the length of the wall. The bottom of each cage was lightly covered in clean cedar bedding.
The mice were placed in the testing room at least 1 hr prior to testing. The mice were placed individually into one of the activity cages and allowed to explore for 30 min. […] Following a 60 minute pre-treatment period, motor activity was monitored for 180 minutes. Activity counts and ambulations (defined as a break of 2 consecutive photobeams) for each animal were recorded every 30 minutes.
A repeated measures two-way analysis of variance (ANOVA) was performed using the overall ranked data (nonparametric technique) to test for the overall effects of treatment, time interval and treatment by time interval interaction. […]

[3] = cited from earlier work
[4] = tested on: brain dopamine/norepinephrine ratio; test: Dopamine/norepinephrine ratios in the brain of rodents; settings: in vivo
Procedure: Dopamine/norepinephrine ratios in the brain of rodents treated with nepicastat were determined. Dopamine/norepinephrine ratios increased in the brains of rodents treated with nepicastat or disulfuram.

normotensive Wistar rats = test: 7 day radio-telemetry study in normotensive Wistar rats; settings: hydralazine 10 mg/kg
Procedure: Male Crl:COBS(WI)BR rats of 15 weeks old were used.
Both nepicastat and hydralazine were prepared in water with traces of Tween 80. All doses were given orally to the rat in 10 ml/kg and were expressed as free base equivalents.
All values were expressed as means±SEM. Statistical significance was defined as a p level of less than 0.05.
Body weights were recorded daily.

With `CN1CCc2cc(Cl)c(O)cc2[C@@H](c2ccccc2)C1` [SCH-23390, reference compound] the “decrease in mean arterial pressure” value [1] was 5±1 mmHg.

In the case of `Clc1cccc(Cl)c1N=C1NCCN1` [clonidine], the “locomotor activity (horizontal activity, movements, rest time) vs vehicle” value (Sprague Dawley rats) is reported as “significantly more horizontal activities at 2 and 2.5 hours”, the “maximum and average acoustic startle response vs vehicle” value (Sprague Dawley rats) is reported as “statistically significantly lower maximum and average startle responses” and the body core temperature (rats) is reported as “significantly increasing body core temperature on day one”. The pre-pulse inhibition (rats) was “just significantly higher percent prepulse inhibition”.

For `COC(=O)[C@H]1[C@@H](OC(=O)c2ccccc2)C[C@@H]2CC[C@H]1N2C.Cl` [cocaine, cocaine hydrochloride], the elimination half-life [2] is given as “about 90 min” and the “total activity counts and ambulations vs vehicle” value (CD-1 (ICR) mice) is given as “significantly greater total activity counts”.

In the case of `CCN(CC)C(=S)SSC(=S)N(CC)CC` [disulfuram], the “cocaine use vs placebo” value ([3]; disulfuram 250 mg per day) is given as “reduced cocaine use compared to placebo”, the “elevations in plasma cocaine levels” value ([3]; intranasal cocaine during disulfuram treatment, one controlled study) is given as “Six-fold elevations” and the “dopamine/norepinephrine ratios in the brain” value [4] is given as “increased”.

With `NNc1nncc2ccccc12` [hydralazine] the heart rate (normotensive Wistar rats) was “varying degrees of tachycardia”, the “time in which the hypotensive effect subsided” value (normotensive Wistar rats) was 10 h and the “maximal decrease in MBP” value (normotensive Wistar rats; within 1 hr after dosing on day 1) was −24 mmHg.
